Patent US9718840B2, “Condensed 5-oxazolidinone derivative” (SUMITOMO DAINIPPON PHARMA CO., LTD., priority 2014, dated 2017)
Each block holds one molecule with its values, some of them ahead of it.

What was measured:
Human FXIa = Human FXIa (Homo sapiens, UniProt P03951); assay: In vitro activated factor XI (FXIa) inhibition test; format: biochemical
[1] = system: Rabbit nail bleeding models; assay: Bleeding time evaluation test using rabbit nail bleeding model; format: in vivo; conditions: for Bleeding time: Experiment 1 (maximum 30 minutes), rabbit; for Bleeding time (fold-increase): Experiment 1, ratio to vehicle group average
Protocol: Rabbit nail bleeding models were prepared by a modification of the report of Wong et al. (Wong P C. et al., J. Thromb. Haemost. 7: 1313-1320 (2009)). Male rabbits (JW, 1.5 to 3.5 kg) were anesthetized by the inhalation of isoflurane (ISOFLU®, manufactured by DS Pharma Animal Health Co., Ltd.) (introduced anesthesia: 4%, continuous anesthesia: 2 to 3%).
(§1) For the intravenous administration of a test drug or a vehicle, an indwelling needle was inserted to the auricular vein, and the test drug or the vehicle was promptly intravenously administered (0.67 mL/kg) and then continuously intravenously administered (1 mL/kg/hr). One hour after the start of administration, three posterior toenails were cut and dipped in saline heated to approximately 37° C., and the bleeding time was measured. The bleeding time was defined as a time from the cutting to the arrest of bleeding, and an average value from the three nails was used. The measurement time was 30 minutes at the maximum for experiment 1 and 60 minutes at the maximum for experiment 2. In each experiment, if bleeding for 30 minutes or 60 minutes or longer was confirmed, the bleeding time was regarded as 30 minutes or 60 minutes.

[2] = system: Rabbit nail bleeding models; assay: Effect of combined use with antiplatelet drug using rabbit nail bleeding model; format: in vivo; conditions: alone; for Bleeding time: rabbit, maximum 60 minutes; for Bleeding time (fold-increase): ratio to vehicle group average
Protocol: as §1, with “Rabbit nail bleeding models were prepared by a modification of the report of Wong et al. (Wong P C. et al., J. Thromb. Haemost. 7: 1313-1320 (2009)). Male rabbits (JW, 1.5 to 3.5 kg) were anesthetized by the inhalation of isoflurane (ISOFLU®, manufactured by DS Pharma Animal Health Co., Ltd.) (introduced anesthesia: 4%, continuous anesthesia: 2 to 3%). For” for “For”, “was” for “was 30 minutes at the maximum for experiment 1 and”, “maximum. If” for “maximum for experiment 2. In each experiment, if”, “for” for “for 30 minutes or”, “as” for “as 30 minutes or”

[3] = system: Rabbit venous thrombus models; assay: In vivo antithrombotic effect evaluation test using rabbit (arteriovenous shunt); conditions: prompt i.v. + continuous i.v.
Protocol: (§2) Rabbit venous thrombus models were prepared by a modification of the report of Wong et al. (Wong P C. et al., J. Pharmacol. Exp. Ther. 292: 351-357 (2000)). Male rabbits (JW, 2 to 4 kg) were anesthetized by the inhalation of isoflurane (ISOFLU®, manufactured by DS Pharma Animal Health Co., Ltd.) (introduced anesthesia: 4%, continuous anesthesia: 1.5 to 2.5%). A tracheostomy tube was inserted to each rabbit, which was then ventilated using a respirator. For the intravenous administration of a test drug and blood collection, catheters were inserted to the right femoral vein and the right femoral artery, respectively. An arteriovenous shunt filled with saline was inserted to the carotid artery and the jugular vein. The arteriovenous shunt was prepared by connecting Atom extension tubes (4Fr) having lengths of 15 cm and 13 cm to the artery side and the vein side, respectively, of a polyethylene tube (length: 60 cm, outside diameter: 11.1 mm, inside diameter: 7.9 mm). Also, 4-0 silk thread having a length of 5 cm was indwelled in the arteriovenous shunt. Blood was sent for 30 minutes from the carotid artery to the jugular vein via the arteriovenous shunt. The shunt was removed, and the weight of the silk thread covered with thrombus was measured. The weight of the silk thread measured before the experiment was subtracted from the measured weight, and the obtained value was used as a wet thrombus weight. One hour before the open of the arteriovenous shunt, the test drug or a vehicle was promptly intravenously administered (0.67 mL/kg) and then continuously intravenously administered (1 mL/kg/hr). The continuous injection was continued throughout the experiment. Further, an existing anticoagulant dabigatran (antithrombin drug) and rivaroxaban (FXa inhibitor) were tested as control drugs.
In order to measure aPTT of blood samples as an index for the intrinsic coagulation pathway, blood was collected before administration and immediately before cessation of blood flow, and plasma was prepared using 3.2% sodium citrate. After incubation at 37° C. for 6 minutes, an STA reagent Cephascreen (for aPTT assay; manufactured by Roche Diagnostics K.K.) was added in an amount equal thereto, and the mixture was further incubated for 4 minutes. STA calcium chloride (manufactured by Roche Diagnostics K.K.) was added in an amount equal thereto, and the time required for coagulation was measured.
In order to measure prothrombin time (PT) of blood samples as an index for the extrinsic coagulation pathway, blood was collected before administration and immediately before cessation of blood flow, and plasma was prepared using 3.2% sodium citrate. After incubation at 37° C. for 10 minutes, Neoplastin Plus (for PT assay; manufactured by Roche Diagnostics K.K.) was added in a double amount, and the time required for coagulation was measured.

[4] = system: Rabbit venous thrombus models; assay: Effect of combined use with antiplatelet drug using rabbit AVST model; format: in vivo; conditions: alone
Protocol: as §2, with “Male rabbits (JW, 2 to 4 kg) were anesthetized by the inhalation of isoflurane (ISOFLU®, manufactured by DS Pharma Animal Health Co., Ltd.) (introduced anesthesia: 4%, continuous anesthesia: 1.5 to 2.5%).” left out, “The arteriovenous shunt was prepared by connecting Atom extension tubes (4Fr) having lengths of 15 cm and 13 cm to the artery side and the vein side, respectively, of a polyethylene tube (length: 60 cm, outside diameter: 11.1 mm, inside diameter: 7.9 mm).” left out, “[…] STA calcium chloride (manufactured by Roche Diagnostics K.K.) was added in” for “Further,”, “amount equal thereto,” for “existing anticoagulant dabigatran (antithrombin drug)”, “the time required for coagulation was measured.” for “rivaroxaban (FXa inhibitor) were tested as control drugs.”

[5] = dose 0.03 + 0.045 mg/kg + mg/kg/h i.v.
[6] = dose 0.1 + 0.15 mg/kg + mg/kg/h i.v.
[7] = dose 0.3 + 0.45 mg/kg + mg/kg/h i.v.
[8] = dose 0.03 + 0.045 mg/kg + mg/kg/h
[9] = dose 0.1 + 0.15 mg/kg + mg/kg/h
[10] = dose 0.3 + 0.45 mg/kg + mg/kg/h

Chain of Human FXIa (P03951 388-625 limits assumed): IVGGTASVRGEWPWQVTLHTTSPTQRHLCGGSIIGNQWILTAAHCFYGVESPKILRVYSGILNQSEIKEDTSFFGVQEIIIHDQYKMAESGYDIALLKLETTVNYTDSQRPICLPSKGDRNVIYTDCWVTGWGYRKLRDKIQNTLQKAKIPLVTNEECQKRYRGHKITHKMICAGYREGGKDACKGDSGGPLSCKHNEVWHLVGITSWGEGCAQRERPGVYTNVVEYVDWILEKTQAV
Chain of Human FXIa (P03951 19-387 partner limits assumed): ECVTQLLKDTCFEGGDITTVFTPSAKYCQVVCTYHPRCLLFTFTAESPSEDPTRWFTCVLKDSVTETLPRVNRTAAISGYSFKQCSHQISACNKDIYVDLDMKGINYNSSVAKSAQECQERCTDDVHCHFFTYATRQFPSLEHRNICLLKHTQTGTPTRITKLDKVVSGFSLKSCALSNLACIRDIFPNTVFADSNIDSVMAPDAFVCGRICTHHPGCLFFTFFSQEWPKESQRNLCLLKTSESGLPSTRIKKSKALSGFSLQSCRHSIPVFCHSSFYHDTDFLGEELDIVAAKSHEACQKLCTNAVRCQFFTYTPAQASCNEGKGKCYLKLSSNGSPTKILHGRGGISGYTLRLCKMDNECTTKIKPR

IC50 (Human FXIa): 34 nM
SMILES: N[C@H](CF)[C@H]1CC[C@H](C(=O)N2CC[C@@H](C3CCCCC3)[C@H]2C(=O)Nc2ccc3[nH]c(C(=O)O)nc3c2)CC1

IC50 (Human FXIa): 15 nM
SMILES: N[C@H](CF)[C@H]1CC[C@H](C(=O)N2CC[C@@H](c3ccccc3)[C@H]2C(=O)Nc2ccc3[nH]c(C(=O)O)cc3c2)CC1

IC50 (Human FXIa): 20 nM
SMILES: N[C@H](CF)[C@H]1CC[C@H](C(=O)N2CC[C@H](c3ccccc3)[C@H]2C(=O)Nc2ccc3[nH]c(C(=O)O)cc3c2)CC1

Bleeding time [1, 5]: 1031 ± 319 s
Bleeding time [1, 6]: 1369 ± 334 s
Bleeding time [1, 7]: 1733 ± 110 s
Bleeding time (fold-increase) [1, 5]: 2.3 ± 0.7 fold-increase
Bleeding time (fold-increase) [1, 6]: 3.0 ± 0.7 fold-increase
Bleeding time (fold-increase) [1, 7]: 3.8 ± 0.2 fold-increase
Bleeding time [2, 5]: 1614 ± 869 s
Bleeding time [2, 6]: 2445 ± 964 s
Bleeding time (fold-increase) [2, 5]: 2.8 ± 1.5 fold-increase
Bleeding time (fold-increase) [2, 6]: 4.2 ± 1.7 fold-increase
SMILES: O=C(NC[C@H]1CN(c2ccc(N3CCOCC3=O)cc2)C(=O)O1)c1ccc(Cl)s1 [Rivaroxaban]
PT (ratio) [3, 8]: 1.23 ± 0.05 ratio
Thrombus weight [3, 8]: 92 ± 19 mg
aPTT (ratio) [3, 8]: 1.22 ± 0.06 ratio
PT (ratio) [3, 9]: 1.73 ± 0.15 ratio
Thrombus weight [3, 9]: 58 ± 9 mg
aPTT (ratio) [3, 9]: 1.50 ± 0.09 ratio
PT (ratio) [3, 10]: 2.87 ± 0.33 ratio
Thrombus weight [3, 10]: 29 ± 10 mg
aPTT (ratio) [3, 10]: 1.87 ± 0.14 ratio
PT (ratio) [4, 5]: 1.23 ± 0.05 ratio
Thrombus weight [4, 5]: 92 ± 19 mg
aPTT (ratio) [4, 5]: 1.22 ± 0.06 ratio
PT (ratio) [4, 6]: 1.73 ± 0.15 ratio
Thrombus weight [4, 6]: 58 ± 9 mg
aPTT (ratio) [4, 6]: 1.50 ± 0.09 ratio
